Results taken from US7063946B2, “Methods, reagents, kits and apparatus for protein function analysis” (Meso Scale Technologies, LLC., priority 2001, dated 2006).

What was measured:
Assay in all cases: Kinase inhibitor profiling, autophosphorylation
Format in all cases: biochemical
FGFR1 = target: T1, FGFR1 (Homo sapiens, UniProt P11362)
T1 construct: specificity data for proteins generated from a library of eighteen full-length clones; host or cells: rabbit reticulocyte lysate, TnT coupled transcription/translation
T1 sequence (P11362 22-822): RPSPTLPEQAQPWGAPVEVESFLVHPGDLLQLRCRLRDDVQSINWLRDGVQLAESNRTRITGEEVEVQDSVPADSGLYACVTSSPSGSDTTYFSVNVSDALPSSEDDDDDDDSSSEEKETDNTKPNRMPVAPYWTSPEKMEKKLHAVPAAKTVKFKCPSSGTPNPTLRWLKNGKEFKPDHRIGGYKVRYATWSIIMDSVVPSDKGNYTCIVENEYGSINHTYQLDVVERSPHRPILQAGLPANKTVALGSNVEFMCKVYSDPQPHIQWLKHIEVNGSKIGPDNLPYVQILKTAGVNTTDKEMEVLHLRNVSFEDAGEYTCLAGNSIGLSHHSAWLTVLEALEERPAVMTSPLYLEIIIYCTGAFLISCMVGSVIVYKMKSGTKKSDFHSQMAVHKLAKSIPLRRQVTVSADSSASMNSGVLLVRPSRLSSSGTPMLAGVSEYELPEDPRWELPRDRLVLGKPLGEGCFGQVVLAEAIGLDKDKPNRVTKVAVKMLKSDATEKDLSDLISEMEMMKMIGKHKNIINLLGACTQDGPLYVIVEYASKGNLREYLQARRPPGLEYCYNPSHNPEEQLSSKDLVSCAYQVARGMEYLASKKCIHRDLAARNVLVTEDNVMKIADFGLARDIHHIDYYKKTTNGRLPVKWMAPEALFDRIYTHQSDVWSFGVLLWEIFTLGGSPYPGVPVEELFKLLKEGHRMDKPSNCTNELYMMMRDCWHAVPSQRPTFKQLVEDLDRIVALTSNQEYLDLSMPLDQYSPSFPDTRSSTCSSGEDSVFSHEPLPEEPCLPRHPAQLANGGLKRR

EphB4 = target: T2, EphB4 (Mus musculus, UniProt P54761)
T2 construct: specificity data for proteins generated from a library of eighteen full-length clones; host or cells: rabbit reticulocyte lysate, TnT coupled in vitro transcription/translation (cell-free)
T2 sequence (P54761 16-987): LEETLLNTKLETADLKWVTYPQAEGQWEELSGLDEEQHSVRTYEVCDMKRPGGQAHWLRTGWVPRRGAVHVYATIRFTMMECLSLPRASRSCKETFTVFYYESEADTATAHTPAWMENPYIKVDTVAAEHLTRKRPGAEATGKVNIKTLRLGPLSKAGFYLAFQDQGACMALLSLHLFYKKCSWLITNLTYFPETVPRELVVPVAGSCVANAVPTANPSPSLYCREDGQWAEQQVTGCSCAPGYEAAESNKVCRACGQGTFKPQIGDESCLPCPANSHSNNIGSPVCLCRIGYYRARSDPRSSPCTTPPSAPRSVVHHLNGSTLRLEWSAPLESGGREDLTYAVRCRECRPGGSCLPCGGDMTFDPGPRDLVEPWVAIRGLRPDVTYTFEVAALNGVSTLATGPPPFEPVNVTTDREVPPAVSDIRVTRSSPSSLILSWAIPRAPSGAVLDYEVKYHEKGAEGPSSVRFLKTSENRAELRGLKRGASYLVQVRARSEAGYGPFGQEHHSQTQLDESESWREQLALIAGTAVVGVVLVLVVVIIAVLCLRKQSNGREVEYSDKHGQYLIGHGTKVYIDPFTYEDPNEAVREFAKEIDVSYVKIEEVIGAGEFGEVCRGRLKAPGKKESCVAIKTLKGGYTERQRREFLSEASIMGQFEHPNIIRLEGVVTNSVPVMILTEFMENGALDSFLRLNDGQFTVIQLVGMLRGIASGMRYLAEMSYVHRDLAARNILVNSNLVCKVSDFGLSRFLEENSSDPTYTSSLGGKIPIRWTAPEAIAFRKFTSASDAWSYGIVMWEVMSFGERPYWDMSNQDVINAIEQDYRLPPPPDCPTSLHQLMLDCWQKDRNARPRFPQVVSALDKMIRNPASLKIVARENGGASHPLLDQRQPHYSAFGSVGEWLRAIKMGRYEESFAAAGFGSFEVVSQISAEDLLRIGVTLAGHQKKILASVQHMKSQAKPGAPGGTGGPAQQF

SYK = target: T3, SYK (Homo sapiens, UniProt P43405)
T3 construct: autophosphorylation activity from full-length clones Spleen Tyrosine Kinase (SYK) and Eph receptor-A7 (EphA7); host or cells: rabbit reticulocyte lysate, TnT coupled in vitro transcription/translation (cell-free)

| Compound | Inhibition specificity towards Autophosphorylation at 10X IC50, FGFR1 (FGFR1) | Inhibition specificity towards Autophosphorylation at 10X IC50, Ephb4 (EphB4) | Inhibition specificity towards Autophosphorylation at 10X IC50, SYK (SYK) |
| --- | --- | --- | --- |
| COC(=O)c1ccc(NCc2cc(O)ccc2O)cc1 [AG-957] | L (low inhibition (“L”=between 50–75% of the activity remaining)) | L (low inhibition (“L”=between 50–75% of the activity remaining)) | L (low inhibition (“L”=between 50–75% of the activity remaining)) |
| Cc1cc2ncc(-c3ccc(O)c(O)c3)nc2cc1C [AG-1433] | H (high inhibition (“H”=less than 25% of the activity remaining)) | H (high inhibition (“H”=less than 25% of the activity remaining)) | H (high inhibition (“H”=less than 25% of the activity remaining)) |
| COc1c(C=O)c(O)cc2c1C(=O)c1ccccc1C2=O [Damnacanthal] | M (medium inhibition (“M”=between 25 to 50% of the activity remaining)) | H (high inhibition (“H”=less than 25% of the activity remaining)) | M (medium inhibition (“M”=between 25 to 50% of the activity remaining)) |
| COc1cc2ncnc(Nc3ccc(Cl)cc3F)c2cc1OC [VEGFR inhibitor] |  | L (low inhibition (“L”=between 50–75% of the activity remaining)) |  |
| Erbstatin analog |  | L (low inhibition (“L”=between 50–75% of the activity remaining)) | L (low inhibition (“L”=between 50–75% of the activity remaining)) |
